“Also recorded” adds a separate entry of the source.
How the values were obtained:
human skin explants = assay: Whitening activity (ex vivo), Fontana-Masson staining for melanin quantification; type: cell-based; conditions: at 2%, topical, 7 days
Experimental: Fresh human skin explants were obtained from skin phototype III and VI donors, aged of 46±25 years. […] Kojic acid (Sigma-Aldrich) at 2% was topically applied and incubated under the same conditions, serving as positive control. The untreated condition was treated with the vehicle (distilled water). The medium was renewed every other day. After the end of culture, the skin explants were sampled and put in formalin before being dehydrated and embedded in paraffin for Fontana-Masson staining.
Skin explants fixed in formalin were dehydrated and embedded in paraffin. Sections of 4 μm thickness were dewaxed and then stained by Fontana-Masson silver method for melanin.
Images were collected using an Axio Observer Inverted fluorescence microscope (Zeiss) in bright field mode.
Melanin was quantified using two open source optical imaging software programs. Photomicrographs (jpeg format) of Fontana-Masson tissue sections were opened in GIMP-GNU Image Manipulation Program. The brown-black color signals corresponding to melanin grains on stained sections were selected, copied and pasted into a new image and saved as a jpeg file; this jpeg file consists solely of black/brown (melanin grains) on a white background. This image was subsequently opened using the ImageJ program. The image was then inverted and the mean intensity was obtained.

melanogenesis pathway = conditions: 0.01% (v/v), 24 h, NHEK-NHEM co-culture, normalized to B2M
Experimental: To evaluate the impact of preparation of the present invention on melanogenesis, a co-culture study with keratinocytes and melanocytes was conducted.
The cell culture was realized with primary cells isolated from biopsies. Cells were co-cultured with a ratio of 10 keratinocytes to 1 melanocyte. Both cell types were derived from a donor.
The product EGCG MONOG 0.01% was filtered and diluted in Keratinocyte Growth Medium 2 (supplied by Promocell).
Cells were seeded in 6-well plates in the presence of the Keratinocyte Growth Medium 2 for 24 h. After seeding, a treatment in the presence of EGCG MONOG 0.01% was applied for 24 h. Untreated wells were used as a basal reference in order to compare the impact of EGCG MONOG and gene expression after 24 h of incubation.
After treatment, the RNA from the cells were extracted using TRIzol™ (available from Sigma) and reverse-transcribed into cDNA. The cDNA was mixed with different primers of interest representative of the melanogenesis pathway (PrimePCR custom plate, pigmentation, Biorad). The expression of the mRNA was measured by semi-quantitative PCR on a Bio-Rad CFX96Real Time PCR System (available from BioRAD). The expression level of the mRNA was calculated and normalized with reference gene (B2M).
The values were reported relative to the untreated control to express an activating or inhibitory effect.

[1] = tested on: Normal Human Epidermal Keratinocytes (NHEKs); assay: Antioxidant activity: ROS production in keratinocytes stressed with TBP (DCFH-DA probe); type: cell-based; conditions: at 0.1%; TBP column = 100, Untreated = 27.5
Experimental: A 96 wells-plate was coated with a collagen I solution at 50 μg/ml. Normal Human Epidermal Keratinocytes (NHEKs) were seeded at 20′000 cells per well with four replicates. Cells were incubated for 24 hours in complete medium (Epilife, Gibco) supplemented with Human keratinocyte growth supplements (HKGS) factor (Gibco) and 1% antibiotics (Sigma) at 37° C. with 5% CO2. […] The evolution of the fluorescence was followed for 1 hour.

[2] = Skin penetration by Raman spectroscopy (ex vivo); type: in vitro ADME, human
Experimental: At the end of the incubation period, the skin explants were frozen in Optimal Cutting Temperature (OCT; VWR) at −80° C. and then cut longitudinally using a cryotome with a thickness of 20 μm. For each explant, 3 tissue sections were selected and deposited on a CaF2 support for Raman imaging analysis. The processing of corrected data maps was performed by using a software based on least squares fitting method that operates in the Matlab environment. This method involves mathematical modeling of reference spectra in the overall spectral image to determine the contribution and distribution of these spectra within the image. The reference spectra were the modelled spectra of the following products: Aglycone, glucoside mixture, 4′-O-α-monoglucoside and untreated skin control.

SMILES	reduction of melanin content compared to untreated (human skin explants)	AP3B1 mRNA expression vs untreated co-culture (melanogenesis pathway)	DTNBP1 mRNA expression vs untreated co-culture (melanogenesis pathway)	EDNRB mRNA expression vs untreated co-culture (melanogenesis pathway)	F2RL1 mRNA expression vs untreated co-culture (melanogenesis pathway)	KIT mRNA expression vs untreated co-culture (melanogenesis pathway)	LYST mRNA expression vs untreated co-culture (melanogenesis pathway)	MC1R mRNA expression vs untreated co-culture (melanogenesis pathway)	MITF mRNA expression vs untreated co-culture (melanogenesis pathway)	PMEL mRNA expression vs untreated co-culture (melanogenesis pathway)	SOX10 mRNA expression vs untreated co-culture (melanogenesis pathway)	TYR mRNA expression vs untreated co-culture (melanogenesis pathway)	ROS, Mean (% of untreated) [1]	skin penetration higher than that of the aglycone ([2]; 2%, 8 hours of topical application, skin explants, relative to aglycone)	skin penetration higher than that of the glucoside mixture ([2]; 2%, 8 hours of topical application, skin explants, relative to glucoside mixture)	quantity accumulated in the skin relative to the aglycone ([2]; at depth of about 65 µm)	bioavailability in the skin ([2]; compared to aglycone (and glucoside mixture))	depth of accumulation in the skin / skin penetration depth ([2]; skin explants, Raman)
O=C1O[C@H]([C@@H](O)CO)C(O)=C1O [Ascorbic acid, ascorbic acid]	28%																	
O=C(O[C@@H]1Cc2c(O)cc(O)cc2O[C@@H]1c1cc(O)c(O[C@H]2O[C@H](CO)[C@@H](O)[C@H](O)[C@H]2O)c(O)c1)c1cc(O)c(O)c(O)c1 [epigallocatechin gallate 4′-O-α-monoglucoside]		−59%	−59%	−68%	−49%	−93%	−48%	−96%	−108%	−212%	−60%	−58%	33.75 % of untreated	+90%	+20%	almost double that of the aglycone	better skin bioavailability than the aglycone and the glucoside mixture; also recorded: much higher bioavailability in the skin than the respective aglycones	about 65 µm
